Assay results from patent publication US20070197452A1, “Treatment of amyloid-related diseases” (priority 2006, published 2007).
“Also recorded” adds a separate entry of the source. Marks after values point to notes of the source that are not given here.

How the values were obtained:
Type in all cases: in vivo, mouse
TgCRND8 mice [1] = assay: Morris water maze spatial reference memory test; settings: for spatial learning performance compared with non-Tg littermates / spatial learning performance compared with untreated TgCRND8 littermates: 28 days of treatment from 5 months of age, tested at 6 months; for cognitive performance compared with non-Tg mice / cognitive performance compared with untreated TgCRND8 mice / cognitive performance compared with non-Tg littermates: prophylactic
Protocol: Behavioural tests: Morris Water Maze testing was performed as previously described. After non-spatial pre-training, mice underwent place discrimination training for 5 days with 4-trials per day, followed by a cued visible platform to rule out general motivational, learning deficits and motor problems, and a probe trial to evaluate memory. […] Open field test for motor activity was preformed as described previously. Duration of walking, pausing and grooming were analyzed as indices of spontaneous locomotor activity. Sensorimotor function was examined with an EconomexTM accelerating rotarod (Columbus Instruments, Columbus, Ohio), as described elsewhere. The rod was set to accelerate at a rate of 0.2 r.p.m./s, from an initial, constant speed of 5 r.p.m. Latency to fall was recorded in four daily trials, conducted at 30 min intervals. All mice were trained for seven days before testing. The test day performance score for each animal was obtained by summing its latency to fall over the four trials Behavioral tests. Morris water maze testing was carried out as previously described. After nonspatial pretraining, mice underwent place discrimination training for 5 d with four trials per day, followed by a cued visible platform trial and a probe trial. An open-field test for motor activity was carried out as described previously. Sensorimotor function was assessed with an Economex accelerating rotarod (Columbus Instruments) as previously described. Behavioural tests. Morris Water Maze testing was performed as previously described. After non-spatial pre-training, mice underwent place discrimination training for 5 days with 4-trials per day, followed by a cued visible platform to rule out general motivational, learning deficits and motor problems, and a probe trial to evaluate memory. The probe trial was conducted at 72 h after the last testing, and used an annulus-crossing index to assess spatial recall. The annulus-crossing index measures the number of passes over the original platform position relative to passes over the other three quadrants. […] Open field test for motor activity was performed as described previously

APP = assay: Analysis of APP in brain (western blot); settings: treated TgCRND8 mice
Protocol: Analysis of APP in brain. Mouse hemi-brain samples were homogenized and spun at 109,000×g, in 20 mM Tris pH7.4,0.25M sucrose, 1 mM EDTA and 1 mM EGTA, and a protease inhibitor cocktail, mixed with 0.4% DEA (diethylamine)/100 mM NaCl. The supernatants were analysed for APPs levels by Western blotting using mAb 22C11, while the pellets were analysed for APP holoprotein with mAb C1/6.1 as previously described.
Analysis of APP processing. Mouse hemi-brain samples were homogenized and spun at 109,000 g, in 20 mM Tris pH 7.4, 0.25 M sucrose, 1 mM EDTA and 1 mM EGTA, and a protease inhibitor cocktail, mixed with a mixture of 0.4% DEA (diethylamine) and 100 mMNaCl. The supernatants were analyzed for APP levels by western blotting using the monoclonal antibody 22C11, and the pellets were analyzed for APP holoprotein with the monoclonal antibody C1/6.1 as previously described. […] The target protein was probed with polyclonal APP C-terminal fragment-specific antibody (Sigma) by western blotting.

TgCRND8 mice [2] = assay: Cerebral amyloid plaque burden (anti-Aβ immunostaining, image analysis); settings: for amyloid burden in hippocampus and cerebral cortex: TgCRND8 mice at six months of age
Protocol: Cerebral amyloid burden. […] To generate sets of systematic uniform random sections, 5 μm serial sections were collected across the entire hemisphere. Sets of sections at 50 μm intervals were used for analyses (10-14 sections/set). Plaques were identified after antigen retrieval with formic acid, and incubation with primary anti-Aβ antibody (Dako M-0872), followed by secondary antibody (Dako StreptABCcomplex/horseradish kit). End products were visualized with DAB and were counter-stained with luxol fast blue. Amyloid plaque burden was assessed with Leco IA-3001 image analysis software interfaced with Leica microscope and Hitachi KP-M1U CCD video camera. Openlab imaging software (Improvision, Lexington, Mass.) was then used to convert micrographs to binary images for plaque number and plaque area determinations. Vascular amyloid burden was defined as amyloid originating from or surrounding blood vessels and was analysed similarly. Cerebral Aβ burden. […] Sets of sections at […] intervals for analyses (10-14 sections per set) were used. Plaques with primary Aβ-specific antibody (Dako M-0872) were identified and visualized with DAB. AP plaque burden was assessed with Openlab imaging software (Improvision) and used to convert micrographs to binary images for determinations of plaque number and plaque area. Vascular Aβ burden was defined as Aβ plaques originating from or surrounding blood vessels and was analyzed similarly. Cerebral Aβ burden. […] To generate sets of systematic uniform random sections, 5 μm serial sections were collected across the entire hemisphere. Sets of sections at 50 μm intervals were used for analyses (10-14 sections/set). Plaques were identified after antigen retrieval with formic acid, and incubation with primary anti-Aβ antibody (Dako M-0872), followed by secondary antibody (Dako StreptABCcomplex/horseradish kit). End products were visualized with DAB and were counter-stained with luxol fast blue. Aβ plaque burden was assessed with Leco IA-3001 image analysis software interfaced with Leica microscope and Hitachi KP-M1U CCD video camera. Openlab imaging software (Improvision, Lexington, Mass.) was then used to convert micrographs to binary images for plaque number and plaque area determinations. Vascular Aβ burden was defined as Aβ plaques originating from or surrounding blood vessels and was analyzed similarly.

[3] = listed as scyllocyclohexanehexol
[4] = TgCRND8 mice treated for 2 months, ending at 7 months of age
[5] = 1 month Treatment: TgCRND8 mice, oral from 5 to 6 months of age
[6] = 4-month Prophylactic: TgCRND8 mice, oral from 6 weeks to 4 months of age
[7] = 6-month Prophylactic: TgCRND8 mice, oral from 6 weeks to 6 months of age
[8] = TgCRND8 mice with pre-existing disease, 28 days from 5 months of age
[9] = TgCRND8 mice, 28 day course at 5 months of age, vs untreated
[10] = TgCRND8 mice, oral, 28 days from 5 months of age, analysed at 6 months
[11] = TgCRND8 mice, prophylactic, 6 months of age
[12] = TgCRND8 mice, oral, 28 days from 5 months of age, analysed at 6 months, listed as Epi-cyclohexanchexol

For OC1C(O)C(O)C(O)C(O)C1O (centres unmarked) [scyllo-cyclohexanehexol, 1,3,5/2,4,6-(scyllo-) cyclohexanehexol], the “spatial learning performance compared with non-Tg littermates” value (TgCRND8 mice [1]) was “indistinguishable from that of their non-Tg littermates; also recorded: indistinguishable from nontransgenic littermates”, the “spatial learning performance compared with untreated TgCRND8 littermates” value (TgCRND8 mice [1]) was “significantly better behavioural performance compared to untreated TgCRND8 mice; also recorded: significantly better than untreated TgCRND8 littermates” and the “spatial learning performance compared with non-Tg littermates” value (TgCRND8 mice [1]; listed as AZD-103) was “indistinguishable from non-Tg littermates”. For the same compound, the “spatial learning performance compared with untreated TgCRND8 littermates” value (TgCRND8 mice [1]; listed as AZD-103) was “significantly better than untreated TgCRND8 littermates”, the “spatial learning performance compared with non-Tg littermates” value (TgCRND8 mice [1]; [3]) was “indistinguishable from nontransgenic littermates” and the “spatial learning performance compared with untreated TgCRND8 littermates” value (TgCRND8 mice [1]; [3]) was “improved behavioral performance”. For the same compound, the effect on cognition (TgCRND8 mice [1]; [4]) was “Sustained effects”, the “spatial memory, dose-response” value (TgCRND8 mice [1]; TgCRND8 mice, 0.3-30 mg/kg/d orally, tested at 4 months of age) was “dose-dependent improvement” and the “cognitive performance compared with non-Tg mice” value (TgCRND8 mice [1]; 6 weeks to 4 months of age) was “approached that of nontransgenic mice”. The “cognitive performance compared with untreated TgCRND8 mice” value (TgCRND8 mice [1]; 6 weeks to 4 months of age) was “significant behavioral improvement”, the “cognitive performance compared with non-Tg mice” value (TgCRND8 mice [1]; 6 weeks to 4 months of age, listed as AZD-103) was “approached that of non-Tg mice” and the “cognitive performance compared with non-Tg mice” value (TgCRND8 mice [1]; 6 weeks to 4 months of age, listed as Scyllo-cyclohexanehexol) was “indistinguishable from nontransgenic littermates on days 4 and 5 of testing”. The “cognitive performance compared with non-Tg littermates” value (TgCRND8 mice [1]; 6 weeks to 6 months of age) was “indistinguishable from nontransgenic littermates; also recorded: approached that of nontransgenic littermates”, the “cognitive performance compared with untreated TgCRND8 mice” value (TgCRND8 mice [1]; 6 weeks to 6 months of age) was “significantly better cognitive function compared to untreated TgCRND8 littermates” and the “levels of APP holoprotein, APP glycosylation, APPs-α, APPs-β in brain homogenates” value (APP) was “no effect”. For the same compound, the “Mean Plaque Size (μm^2)” value (TgCRND8 mice [2]; [5]) was 336 ± 6* μm^2, the “Total Plaque Area (μm^2)” value (TgCRND8 mice [2]; [5]) was 420027 ± 14986* μm^2 and the “Mean Plaque Size (μm^2)” value (TgCRND8 mice [2]; [6]) was 103 ± 4* μm^2. For the same compound, the “Total Plaque Area (μm^2)” value (TgCRND8 mice [2]; [6]) was 63847 ± 2895 μm^2, the “Mean Plaque Size (μm^2)” value (TgCRND8 mice [2]; [7]) was 339 ± 10† μm^2 and the “Total Plaque Area (μm^2)” value (TgCRND8 mice [2]; [7]) was 262379 ± 5373† μm^2. For the same compound, the “amyloid burden in hippocampus and cerebral cortex” value (shortened to “amyloid burden”) (TgCRND8 mice [2]) was “significantly decreased amyloid burden”, the “amyloid burden” value (TgCRND8 mice [2]; listed as AZD-103) was “significantly decreased amyloid burden” and the effect on pathology (TgCRND8 mice [2]; [4]) was “Sustained effects”. For the same compound, the “percent area of the brain covered with plaques” value (TgCRND8 mice [2]; [8]) was “significantly reduced”, the “plaque number” value (TgCRND8 mice [2]; [8]) was “significantly reduced” and the “plaque size” value (TgCRND8 mice [2]; [8]) was “significantly reduced”. The “plaque count, dose-response” value (TgCRND8 mice [2]; TgCRND8 mice, 0.3-30 mg/kg/d orally, 4 months of age, 6F3D immunostaining) was “dose-dependent decrease; also recorded: improvement”, the “percent area of the brain covered by plaques, reduction” value (TgCRND8 mice [2]; [9]) was 14±0.5 % reduction and the plaque number reduction (TgCRND8 mice [2]; [9]) was 13±0.3 % reduction. The plaque size reduction (TgCRND8 mice [2]; [9]) was 16±0.4 % reduction, the “plaque burden in hippocampus” value (TgCRND8 mice [2]; TgCRND8 mice, one month of treatment from 5 months of age) was “lower plaque burden” and the “Mean Plaque Size (μm^2)” value (TgCRND8 mice [2]; [10]) was 336 ± 6* μm^2. For the same compound, the “Total Plaque Area (μm^2)” value (TgCRND8 mice [2]; [10]) was 420027 ± 14986* μm^2, the “Total Plaque Count” value (TgCRND8 mice [2]; [10]) was 1260 ± 27 and the “mean plaque size” value (TgCRND8 mice [2]; [11]) was “smaller mean plaque size”. The “all measures of plaque burden” value (TgCRND8 mice [2]; TgCRND8 mice, prophylactic, at 4 and 6 months of age) was “sustained decrease in all measures of plaque burden”.
With OC1C(O)C(O)C(O)C(O)C1O (stereo not drawn) [epi-cyclohexanehexol, 1,2,3,4,5/6-(epi-) cyclohexanehexol, reference compound] the “spatial learning performance compared with non-Tg littermates” value (TgCRND8 mice [1]) was “significantly poorer than the performance of their non-Tg littermates; also recorded: remained impaired with respect to non-Tg littermates; also recorded: remained impaired with respect to nontransgenic littermates”, the “spatial learning performance compared with untreated TgCRND8 littermates” value (TgCRND8 mice [1]) was “not significantly different from that of untreated TgCRND8 littermates; also recorded: ineffective at reversing behavioral deficits” and the “spatial learning performance compared with non-Tg littermates” value (TgCRND8 mice [1]; listed as AZD-102) was “remained impaired with respect to non-Tg littermates”. The “spatial learning performance compared with untreated TgCRND8 littermates” value (TgCRND8 mice [1]; listed as AZD-102) was “not different from untreated TgCRND8 littermates”, the “cognitive performance compared with non-Tg mice” value (TgCRND8 mice [1]; 6 weeks to 4 months of age) was “significantly different from treated and untreated nontransgenic mice” and the “cognitive performance compared with untreated TgCRND8 mice” value (TgCRND8 mice [1]; 6 weeks to 4 months of age) was “significant behavioral improvement”. The “cognitive performance compared with non-Tg mice” value (TgCRND8 mice [1]; 6 weeks to 4 months of age, listed as AZD-102) was “significantly different from treated and untreated non-Tg mice”, the “cognitive performance compared with non-Tg littermates” value (TgCRND8 mice [1]; 6 weeks to 6 months of age) was “indistinguishable from nontransgenic littermates; also recorded: approached that of nontransgenic littermates” and the “cognitive performance compared with untreated TgCRND8 mice” value (TgCRND8 mice [1]; 6 weeks to 6 months of age) was “significantly better cognitive function compared to untreated TgCRND8 littermates”. The “cognitive performance compared with non-Tg littermates” value (TgCRND8 mice [1]; 6 weeks to 6 months of age, listed as AZD-102) was “approached that of non-Tg littermates”, the “Mean Plaque Size (μm^2)” value (TgCRND8 mice [2]; [5]) was 346 ± 6 μm^2 and the “Total Plaque Area (μm^2)” value (TgCRND8 mice [2]; [5]) was 459706 ± 49966 μm^2. For the same compound, the “Mean Plaque Size (μm^2)” value (TgCRND8 mice [2]; [6]) was 95 ± 43 μm^2, the “Total Plaque Area (μm^2)” value (TgCRND8 mice [2]; [6]) was 65042 ± 5199 μm^2 and the “Mean Plaque Size (μm^2)” value (TgCRND8 mice [2]; [7]) was 370 ± 9 μm^2. The “Total Plaque Area (μm^2)” value (TgCRND8 mice [2]; [7]) was 380456 ± 13498 μm^2, the “amyloid burden” value (TgCRND8 mice [2]) was “modest effect on amyloid burden” and the “amyloid burden” value (TgCRND8 mice [2]; listed as AZD-102) was “modest effect on amyloid burden”. For the same compound, the “percent area of the brain covered with plaques” value (TgCRND8 mice [2]; [8]) was “no significant impact; also recorded: no significant effect”, the “plaque number” value (TgCRND8 mice [2]; [8]) was “no significant impact; also recorded: no significant effect” and the “Mean Plaque Size (μm^2)” value (TgCRND8 mice [2]; [12]) was 346 ± 6 μm^2. For the same compound, the “Total Plaque Area (μm^2)” value (TgCRND8 mice [2]; [12]) was 459706 ± 49966 μm^2, the “Total Plaque Count” value (TgCRND8 mice [2]; [12]) was 1342 ± 114 and the “mean plaque size” value (TgCRND8 mice [2]; TgCRND8 mice, prophylactic, 4 months of age) was “significant decrease in mean plaque size”. For the same compound, the “mean plaque size” value (TgCRND8 mice [2]; [11]) was “reductions were not sustained”.
